From patent publication US20250382296A1, “NITROGEN-CONTAINING FUSED THREE RING PRMT5 INHIBITOR, AND PREPARATION METHOD THEREFOR AND PHARMACEUTICAL USE THEREOF” (Abbisko Therapeutics Co., Ltd., priority 2022, published 2025)

What was measured:
[1] = system: HCT 116 wild-type MTAP cells; test: Inhibition of proliferation of HCT116 wild-type MTAP cells (CellTiter-Glo, 6 days); assay type: cell-based; conditions: Homo sapiens, HCT-116, 144 h
Description: (§1) 1. HCT 116 MTAP-knockout cells and HCT 116 wild-type MTAP cells were plated in 96-well flat-bottom plates and cultured overnight at 37° C. and […] in McCoy's 5A medium containing 10% fetal bovine serum+1% penicillin-streptomycin.
(§2) 2. The next day, compounds were each dissolved in DMSO, diluted successively with DMSO and medium and then transferred to cell plates; the final concentration of each compound was 10 μM, 4-fold dilution was performed to obtain 9 concentration points, and a DMSO control was provided.
(§3) 3. Cells not treated with compound were subjected to CellTiter-Glo Luminescent Cell Viability Assay (Promega) to detect the cell viability, and reference was made to the kit instructions for the operation; the plates were then placed on an EnVision Multilabel Reader to detect luminescence signals.
(§4) 4. Meanwhile, the cell plates containing cells treated with compounds were cultured continuously at 37° C. and […] CO2 for 6 days.
(§5) 5. Then, the cell viability was also detected by CellTiter-Glo.
(§6) 6. Finally, dose response curves were plotted using the four parameter dose response curve module of GraphPad Prism v 9.2.0 software and proliferation inhibition IC50 (unit: nM) was calculated.

[2] = system: HCT 116 MTAP-knockout cells; test: Inhibition of proliferation of HCT116 MTAP-knockout cells (CellTiter-Glo, 6 days); assay type: cell-based, human; conditions: for IC50: Homo sapiens, HCT-116, 144 h, proliferation inhibition, HCT116 MTAP-knockout, 6 days, CellTiter-Glo; for Selectivity: IC50 HCT116 wild-type cells / IC50 HCT116 MTAP-knockout cells
Description: as §1, §2, §3, §4, §5, §6

Row | Compound | IC50 [1] [µM] | IC50 [2] [µM] | Selectivity [2]
1 | Nc1nc2ccc(C(=O)N(Cc3ccc(C(F)(F)F)nn3)CC3CC3)cc2n2cncc12 [Example 156, 4-amino-N-(cyclopropylmethyl)-N-((6-(trifluoromethyl)pyridazin-3-yl)methyl)imidazo[1,5-a]quinoxaline-8-carboxamide] | 1.61 | 0.01 | 160.7
2 | Nc1nc2cc(F)c(C(=O)N(Cc3ccc(C(F)(F)F)cn3)CC3CC3)cc2n2cncc12 [Example 163, 4-amino-N-(cyclopropylmethyl)-7-fluoro-N-((5-(trifluoromethyl)pyridin-2-yl)methyl)imidazo[1,5-a]quinoxaline-8-carboxamide] | 0.33 | 0.006 | 55
3 | Cc1cc2nc(N)c3cncn3c2cc1C(=O)N(Cc1ccc(C(F)(F)F)cn1)CC1CC1 [Example 164, 4-amino-N-(cyclopropylmethyl)-7-methyl-N-((5-(trifluoromethyl)pyridin-2-yl)methyl)imidazo[1,5-a]quinoxaline-8-carboxamide] | 0.706 | 0.008 | 88.3
4 | Nc1nc2cc(Cl)c(C(=O)N(Cc3ccc(C(F)(F)F)cn3)CC3CC3)cc2n2cncc12 [Example 165, 4-amino-7-chloro-N-(cyclopropylmethyl)-N-((5-(trifluoromethyl)pyridin-2-yl)methyl)imidazo[1,5-a]quinoxaline-8-carboxamide] | 0.358 | 0.011 | 32.5
5 | Cc1ncc2c(N)nc3ccc(C(=O)N(Cc4ccc(C(F)(F)F)cn4)CC4CC4)cc3n12 [Example 167, 4-amino-N-(cyclopropylmethyl)-1-methyl-N-((5-(trifluoromethyl)pyridin-2-yl)methyl)imidazo[1,5-a]quinoxaline-8-carboxamide] | 2.71 | 0.074 | 36.6
6 | Cc1ncc2c(N)nc3cc(F)c(C(=O)N(Cc4ccc(C(F)(F)F)cn4)CC4CC4)cc3n12 [Example 168, 4-amino-N-(cyclopropylmethyl)-7-fluoro-1-methyl-N-((5-(trifluoromethyl)pyridin-2-yl)methyl)imidazo[1,5-a]quinoxaline-8-carboxamide] | 7.91 | 0.111 | 71.3
7 | Cc1cc2nc(N)c3cnc(C)n3c2cc1C(=O)N(Cc1ccc(C(F)(F)F)cn1)CC1CC1 [Example 169, 4-amino-N-(cyclopropylmethyl)-1,7-dimethyl-N-((5-(trifluoromethyl)pyridin-2-yl)methyl)imidazo[1,5-a]quinoxaline-8-carboxamide] | 1.88 | 0.035 | 53.6
8 | CN(C(=O)c1ccc2nc(N)c3cncn3c2c1)C1COCc2cc(C(F)(F)F)ccc21 (stereo not drawn) [Example 179, 4-amino-N-methyl-N-(7-(trifluoromethyl)isochroman-4-yl)imidazo[1,5-a]quinoxaline-8-carboxamide] | 3.72 | 0.067 | 55.5
9 | Nc1nc2ccc(C(=O)N(CC3CC3)[C@@H]3COc4nc(C(F)(F)F)ccc43)cc2n2cncc12 [Example 181a, (S)-4-amino-N-(cyclopropylmethyl)-N-(6-(trifluoromethyl)-2,3-dihydrofuro[2,3-b]pyridin-3-yl)imidazo[1,5-a]quinoxaline-8-carboxamide] | 5.1 | 0.33 | 15.5
10 | Cc1cc2nc(N)c3cncn3c2cc1C(=O)N(c1cnn(C)c1)[C@@H]1COc2nc(C(F)(F)F)ccc21 [Example 206a, (S)-4-amino-7-methyl-N-(1-methyl-1H-pyrazol-4-yl)-N-(6-(trifluoromethyl)-2,3-dihydrofuro[2,3-b]pyridin-3-yl)imidazo[1,5-a]quinoxaline-8-carboxamide] | 2.23 | 0.041 | 54.5
11 | Cc1cc2nc(N)c3cncn3c2cc1C(=O)N(c1cnn(C)c1)[C@@H]1COc2cc(C(F)(F)F)ccc21 [Example 207a, (S)-4-amino-7-methyl-N-(1-methyl-1H-pyrazol-4-yl)-N-(6-(trifluoromethyl)-2,3-dihydrobenzofuran-3-yl)imidazo[1,5-a]quinoxaline-8-carboxamide] | 0.07 | 0.002 | 35
12 | CCn1cc(N(C(=O)c2ccc3nc(N)c4cncn4c3c2)[C@@H]2COc3cc(C(F)(F)F)ccc32)cn1 [Example 208a, (S)-4-amino-N-(1-ethyl-1H-pyrazol-4-yl)-N-(6-(trifluoromethyl)-2,3-dihydrobenzofuran-3-yl)imidazo[1,5-a]quinoxaline-8-carboxamide] | 0.523 | 0.005 | 104.6
13 | Cn1cc(N(C(=O)c2cc3c(cc2Cl)nc(N)c2cncn23)[C@@H]2COc3cc(C(F)(F)F)ccc32)cn1 [Example 210a, (S)-4-amino-7-chloro-N-(1-methyl-1H-pyrazol-4-yl)-N-(6-(trifluoromethyl)-2,3-dihydrobenzofuran-3-yl)imidazo[1,5-a]quinoxaline-8-carboxamide] | 0.059 | 0.001 | 59
14 | Cn1cc(N(C(=O)c2cc3c(cc2Cl)nc(N)c2cncn23)[C@@H]2COc3nc(C(F)(F)F)ccc32)cn1 [Example 211a, (S)-4-amino-7-chloro-N-(1-methyl-1H-pyrazol-4-yl)-N-(6-(trifluoromethyl)-2,3-dihydrofuro[2,3-b]pyridin-3-yl)imidazo[1,5-a]quinoxaline-8-carboxamide] | 1.33 | 0.019 | 69.9
15 | Nc1nc2cc(Cl)c(C(=O)N(Cc3ccc(C(F)(F)F)nn3)CC3CC3)cc2n2cncc12 [Example 212, 4-amino-7-chloro-N-(cyclopropylmethyl)-N-((6-(trifluoromethyl)pyridazin-3-yl)methyl)imidazo[1,5-a]quinoxaline-8-carboxamide] | 0.383 | 0.008 | 47.9
16 | Cc1cc2nc(N)c3cncn3c2cc1C(=O)N(Cc1ccc(C(F)(F)F)nn1)CC1CC1 [Example 213, 4-amino-N-(cyclopropylmethyl)-7-methyl-N-((6-(trifluoromethyl)pyridazin-3-yl)methyl)imidazo[1,5-a]quinoxaline-8-carboxamide] | 1.32 | 0.015 | 87.9
17 | CN(C(=O)c1ccc2nc(N)c3cncn3c2c1)C1COc2cc(-c3cnn(C)c3)ccc21 (stereo not drawn) [Example 214, 4-amino-N-methyl-N-(6-(1-methyl-1H-pyrazol-4-yl)-2,3-dihydrobenzofuran-3-yl)imidazo[1,5-a]quinoxaline-8-carboxamide] | > 10 | 0.188 | >53.1
18 | Nc1nc2cc(F)c(C(=O)N(Cc3ccc(C(F)(F)F)nn3)CC3CC3)cc2n2cncc12 [Example 215, 4-amino-N-(cyclopropylmethyl)-7-fluoro-N-((6-(trifluoromethyl)pyridazin-3-yl)methyl)imidazo[1,5-a]quinoxaline-8-carboxamide] | 0.314 | 0.008 | 39.3
19 | Nc1nc2ccc(C(=O)N(c3cn[nH]c3)[C@@H]3COc4cc(C(F)(F)F)ccc43)cc2n2cncc12 [Example 216, (S)-4-amino-N-(1H-pyrazol-4-yl)-N-(6-(trifluoromethyl)-2,3-dihydrobenzofuran-3-yl)imidazo[1,5-a]quinoxaline-8-carboxamide] | 1.08 | 0.011 | 98.3
20 | C[Si](C)(C)CCOCn1cc(N(C(=O)c2ccc3nc(N)c4cncn4c3c2)[C@@H]2COc3cc(C(F)(F)F)ccc32)cn1 [Example 217, (S)-4-amino-N-(6-(trifluoromethyl)-2,3-dihydrobenzofuran-3-yl)-N-(1-((2-(trimethylsilyl)ethoxy)methyl)-1H-pyrazol-4-yl)imidazo[1,5-a]quinoxaline-8-carboxamide] | 0.546 | 0.041 | 13.3
21 | Cn1cc(N(C(=O)c2cc3c(cc2F)nc(N)c2cncn23)[C@@H]2COc3cc(C(F)(F)F)ccc32)cn1 [Example 218, (S)-4-amino-7-fluoro-N-(1-methyl-1H-pyrazol-4-yl)-N-(6-(trifluoromethyl)-2,3-dihydrobenzofuran-3-yl)imidazo[1,5-a]quinoxaline-8-carboxamide] | 0.047 | 0.002 | 23.5
22 | Cn1cc(N(C(=O)c2cc3c(cc2F)nc(N)c2cncn23)[C@@H]2COc3nc(C(F)(F)F)ccc32)cn1 [Example 219, (S)-4-amino-7-fluoro-N-(1-methyl-1H-pyrazol-4-yl)-N-(6-(trifluoromethyl)-2,3-dihydrofuro[2,3-b]pyridin-3-yl)imidazo[1,5-a]quinoxaline-8-carboxamide] | 0.257 | 0.003 | 85.7
23 | C[C@@H]1CCN(C(=O)c2ccc3nc(N)c4cncn4c3c2)[C@@H](c2ccc3scnc3c2)C1 [Example 225, (4-aminoimidazo[1,5-a]quinoxalin-8-yl)((2R,4R)-2-(benzo[d]thiazol-5-yl)-4-methylpiperidin-1-yl)methanone] | > 10 | 0.499 | >20
